# Measurements published in patent US9789096B2, “Methods and compositions for selective and targeted cancer therapy” (Board of Regents of the University of Texas System, priority 2013, dated 2017).
# pIC50: −log10 of the molar value.
# Tested on: H1819
# Assay: Cell viability dose-response, H1819
# Assay type: cell-based, human
# Details: 12-point dose-response starting at 50 micromolar, 3-fold increments, in duplicate; read-out: toxicity data, H1819
# Description: (§1) FIG. 6A. […] Cell viability is plotted vs. compound concentration. Compound was added to cells plated at 15% confluence in 96-well plates in RPMI-1640 media supplemented with 5% Fetal Bovine Serum and 2 mM L-Glutamine. After 4 days of incubation, ATP levels were measured using Cell Titer Glo (Promega). Data are presented as the average of 2 replicates ±SEM.
# (§2) Selectivity may be measured by the half maximal inhibitory concentration (IC50), which, as used herein, is a measure of the effectiveness of a compound in killing cells. This quantitative measure indicates how much of a particular compound is needed to kill a particular cell population by half (e.g., as indicated by the amount of ATP). […] The IC50 can be determined by constructing a dose-response curve. The lower the IC50, the higher the potency, and the greater the difference between IC50 values for different cell lines (e.g., sensitive lines vs. insensitive lines, and sensitive lines vs. normal lines) the greater the selectivity. […]
# (§3) With this information, we synthesized and tested a series of small molecules derived in conception from the oxalamide and chromone scaffold including N-acyl ureas, as shown in Tables 6-8. Each compound was tested in a 12-point dose-response study starting at 50 micromolar and decreasing in 3-fold increments to sub-nanomolar concentrations, in duplicate. Additionally, one or more additional cell line was tested in the same way.
row,SMILES,pIC50
1,COc1ccc(CCNC(=O)C(=O)Nc2ccc(Cl)cc2)cc1 [SW027951-2-A],≤ 4.31

# Same assay, conditions: Homo sapiens, NCI-H1819, 12-point dose-response starting at 50 micromolar, 3-fold increments, in duplicate; read-out: toxicity data, H1819
row,SMILES,pIC50
1,COc1ccc(CCNC(=O)C(=O)Nc2cccc(F)c2)cc1 [SW2068S9-1-A],≤ 4.31
2,COc1ccc(CCNC(=O)C(=O)Nc2cccc(Br)c2)cc1 [SW027952-2-A],≤ 4.31
3,COc1ccc(CCNC(=O)C(=O)Nc2ccccc2OC)cc1 [SW027954-2-A],≤ 4.31
4,COc1ccc(CCNC(=O)C(=O)Nc2ccccc2F)cc1 [SW027962-2-A],≤ 4.31
5,O=C(NCCc1ccccc1)C(=O)Nc1ccc(Cl)cc1 [SW113361-2-A],≤ 4.31
6,COc1ccc(NC(=O)Nc2ccc(OC)cc2)cc1 [SW113878-2-A],≤ 4.31
7,COc1ccc(CCNC(=O)C(=O)Nc2ccc(F)c(Cl)c2)cc1 [SW206860-1-A],≤ 4.31
8,COc1ccc(CCNC(=O)C(=O)Nc2cc(F)cc(Cl)c2)cc1 [SW206861-1-A],4.35
9,COc1ccc(CCNC(=O)C(=O)Nc2cc(F)ccc2Cl)cc1 [SW206862-1-A],≤ 4.31
10,COc1ccc(CCNC(=O)C(=O)Nc2ccc(F)cc2Cl)cc1 [SW206863-1-a],≤ 4.31
11,COc1ccc(CCNC(=O)C(=O)Nc2cc(Cl)ccc2C)cc1 [SW206866-1-A],≤ 4.31
12,COc1ccc(CCNC(=O)C(=O)Nc2cc(C)ccc2Cl)cc1 [SW206867-1-A],≤ 4.31
13,COc1ccc(CCNC(=O)C(=O)Nc2c(C)cccc2Cl)cc1 [SW206868-1-A],≤ 4.31
14,COc1ccc(CCNC(=O)C(=O)Nc2cc(Cl)cc(C(F)(F)F)c2)cc1 [SW206869-1-A],≤ 4.31
15,COc1ccc(CCNC(=O)C(=O)Nc2cc(OC)ccc2Cl)cc1 [SW206870-1-A],≤ 4.31
16,COc1ccc(CCNC(=O)C(=O)Nc2cccc(OC)c2)cc1 [SW206871-1-A],≤ 4.31

# Same assay, conditions: Homo sapiens, NCI-H1819, Tables 3 and 4; read-out: IC50 (uM) vs indicated non-small cell lung cancer cell line H1819
row,SMILES,IC50
1,COc1ccc2nc(NS(=O)(=O)c3ccc4c(c3)OCCO4)sc2c1 [SW202748],69 µM

# Tested on: H2122
# Assay: Cell viability dose-response, H2122
# Assay type: cell-based, human
# Details: 12-point dose-response starting at 50 micromolar, 3-fold increments, in duplicate; read-out: toxicity data, H2122
# Description: as §1, §2, §3
row,SMILES,pIC50
1,COc1ccc(CCNC(=O)C(=O)Nc2ccc(Cl)cc2)cc1 [SW027951-2-A],6.55
2,COc1ccc(CCNC(=O)C(=O)Nc2cccc(Br)c2)cc1 [SW027952-2-A],5.51

# Same assay, conditions: Homo sapiens, NCI-H2122, 12-point dose-response starting at 50 micromolar, 3-fold increments, in duplicate; read-out: toxicity data, H2122
row,SMILES,pIC50
1,COc1ccc(CCNC(=O)C(=O)Nc2cccc(F)c2)cc1 [SW2068S9-1-A],5.65
2,COc1ccc(CCNC(=O)C(=O)Nc2ccccc2OC)cc1 [SW027954-2-A],≤ 4.31
3,COc1ccc(CCNC(=O)C(=O)Nc2ccccc2F)cc1 [SW027962-2-A],≤ 4.31
4,O=C(NCCc1ccccc1)C(=O)Nc1ccc(Cl)cc1 [SW113361-2-A],≤ 4.31
5,COc1ccc(NC(=O)Nc2ccc(OC)cc2)cc1 [SW113878-2-A],≤ 4.31
6,COc1ccc(CCNC(=O)C(=O)Nc2ccc(F)c(Cl)c2)cc1 [SW206860-1-A],6.13
7,COc1ccc(CCNC(=O)C(=O)Nc2cc(F)cc(Cl)c2)cc1 [SW206861-1-A],≤ 4.31
8,COc1ccc(CCNC(=O)C(=O)Nc2cc(F)ccc2Cl)cc1 [SW206862-1-A],≤ 4.31
9,COc1ccc(CCNC(=O)C(=O)Nc2ccc(F)cc2Cl)cc1 [SW206863-1-a],≤ 4.31
10,COc1ccc(CCNC(=O)C(=O)Nc2cc(Cl)ccc2C)cc1 [SW206866-1-A],≤ 4.31
11,COc1ccc(CCNC(=O)C(=O)Nc2cc(C)ccc2Cl)cc1 [SW206867-1-A],≤ 4.31
12,COc1ccc(CCNC(=O)C(=O)Nc2c(C)cccc2Cl)cc1 [SW206868-1-A],≤ 4.31
13,COc1ccc(CCNC(=O)C(=O)Nc2cc(Cl)cc(C(F)(F)F)c2)cc1 [SW206869-1-A],≤ 4.31
14,COc1ccc(CCNC(=O)C(=O)Nc2cc(OC)ccc2Cl)cc1 [SW206870-1-A],≤ 4.31
15,COc1ccc(CCNC(=O)C(=O)Nc2cccc(OC)c2)cc1 [SW206871-1-A],6.03

# Same assay, conditions: Homo sapiens, NCI-H2122, Tables 3 and 4; read-out: IC50 (uM) vs indicated non-small cell lung cancer cell line H2122
row,SMILES,IC50
1,C#CCOc1ccc2nc(NC(=O)c3ccc(C(=O)c4ccccc4)cc3)sc2c1 [SW202868],0.005 µM
2,COc1ccc2nc(NC(=O)c3ccc(C(=O)N4CCN(C)CC4)cc3)sc2c1 [SW203669],≥ 49.5 µM
3,COc1ccc2nc(NC(=O)c3ccc(Nc4ccccc4)cc3)sc2c1 [SW203670],0.108 µM
4,COc1ccc(Nc2ccc(C(=O)Nc3nc4ccc(OC)cc4s3)cc2)cc1 [SW203671],0.314 µM
5,COc1ccc2nc(NC(=O)c3ccc(C(O)c4ccccn4)cc3)sc2c1 (centres unmarked) [SW203726],0.029 µM
6,COc1ccc2nc(NC(=O)c3ccc(C(=O)c4ccccn4)cc3)sc2c1 [SW203727],0.016 µM
7,COc1ccc2nc(NC(=O)c3ccc(N=[N+]=[N-])cc3)sc2c1 [SW203728],0.12 µM
8,COc1ccc2nc(NC(=O)c3ccc(C(=O)N4CCCCC4)cc3)sc2c1 [SW203730],0.845 µM
9,COc1ccc2nc(NC(=O)c3ccc(C(=O)N4CCOCC4)cc3)sc2c1 [SW203731],2.28 µM
10,COc1ccc2nc(NC(=O)c3ccc(C(=O)NCc4ccccc4)cc3)sc2c1 [SW203732],0.013 µM
11,COc1ccc2nc(NC(=O)c3ccc(C(=O)c4cccnc4)cc3)sc2c1 [SW203733],0.017 µM
12,C#CCOCCOCCOCCOCCOc1ccc2nc(NC(=O)c3ccc(C(=O)c4ccccc4)cc3)sc2c1 [SW203734],0.939 µM
13,COc1ccc2nc(NC(=O)c3ccc(C(O)c4ccncc4)cc3)sc2c1 (centres unmarked) [SW203735],0.036 µM
14,COc1ccc2nc(NC(=O)c3ccc(C(O)c4ccccc4)cc3)sc2c1 (centres unmarked) [SW207003],0.006 µM

# Same assay, conditions: Homo sapiens, NCI-H2122, cell prints its own unit; 12-point dose-response starting at 50 micromolar; read-out: toxicity data, H2122
row,SMILES,pIC50
1,C#CCOc1ccc(CCNC(=O)C(=O)Nc2ccc(C(=O)c3ccccc3)cc2)cc1 [SW207038],< 6.00
